Test system: stool microbiome
Experiment: Stool microbiome by multitag pyrosequencing, family level, within HE group (Example 1)
Format: in vivo, human
Design: normalized abundance of Streptococcaceae: unit not given here
Conditions: HE patients
Description: Interrogation of the Microbiome: Stool was collected and DNA extracted for microbiome analysis within 24 hours of collection from patients and controls using published techniques (29). We first routinely use Length Heterogeneity PCR (LH-PCR) fingerprinting of the 16S rRNA to rapidly survey our samples and standardize the community amplification. We then interrogated the microbial taxa associated with the gut fecal microbiome using Multitag Pyrosequencing (MTPS). This technique allows the rapid sequencing of multiple samples at one time yielding thousands of sequence reads per sample (12).
Microbiome Community Fingerprinting: LH-PCR was done to standardize the community analysis as previously published (21). Briefly, total genomic DNA was extracted from tissue using Bio101 kit from MP Biomedicals Inc., Montreal, Quebec as per the manufacturer's instructions. About 10 ng of extracted DNA was amplified by PCR using a fluorescently labeled forward primer 27F (5’-(6FAM) AGAGTTTGATCCTGGCTCA G-3′, SEQ ID NO: 1) and unlabeled reverse primer 355R′ (5′-GCTGCCTCCCGTAGGAGT-3′, SEQ ID NO: 2). Both primers are universal primers for Bacteria (22). The LH-PCR products were diluted according to their intensity on agarose gel electrophoresis and mixed with ILS-600 size standards (Promega) and HiDi Formamide (Applied Biosystems, Foster City, Calif.). The diluted samples were then separated on a ABI 3130x1 fluorescent capillary sequencer (Applied Biosystems, Foster City, Calif.) and processed using the Genemapper™ software package (Applied Biosystems, Foster City, Calif.). Normalized peak areas were calculated using a custom PERL script and OTUs constituting less than 1% of the total community from each sample were eliminated from the analysis to remove the variable low abundance components within the communities.
MTPS: We employed the MTPS process to characterize the microbiome from the fecal samples. Specifically, we have generated a set of 96 emulsion PCR fusion primers that contain the 454 emulsion PCR linkers on the 27F and 355R primers and a different 8 base “barcode” between the A adapter and 27F primer. Thus, each fecal sample was amplified with unique bar-coded forward 16S rRNA primers and then up to 96 samples were pooled and subjected to emulsion PCR and pyrosequenced using a GS-FLX pyrosequencer (Roche). Data from each pooled sample were “deconvoluted” by sorting the sequences into bins based on the barcodes using custom PERL scripts. Thus, we were able to normalize each sample by the total number of reads from each barcode. We have noted that ligating tagged primers to PCR amplicons distorts the abundances of the communities and thus it is critical to incorporate the tags during the original amplification step (12). Several groups have employed various barcoding strategies to analyze multiple samples and this strategy is now well accepted (38).
RDP10 Analysis: We identified the taxa present in each sample using the Bayesian analysis tool in Version 10 of the Ribosomal Database Project (RDP10). The abundances of the bacterial identifications were then normalized using a custom PERL script and taxa present at >1% of the community were tabulated. We chose this cutoff because of our a priori assumption that taxa present in <1% of the community vary between individuals and have minimal contribution to the functionality of that community and 2,000 reads per sample will only reliably identify community components that are greater than 1% in abundance (13).
The cirrhosis group was divided into those with and without HE and were compared. Data from the significant variables between HE and non-HE groups were combined in a MANOVA model. Within HE patients, comparison was made between those on lactulose alone to those with lactulose and rifaximin. Microbiome abundance comparisons between groups were made at a family level using non-parametric tests. […]

OC[C@H]1O[C@@H](O[C@@H]2[C@@H](CO)OC(O)(CO)[C@H]2O)[C@H](O)[C@@H](O)[C@H]1O (mixture of isomers) [lactulose]
normalized abundance of Alcaligenaceae: 12.6±9% | normalized abundance of Bacteroidaceae: 39±35% | normalized abundance of Enterobacteriaceae: 26±40% | normalized abundance of Lactobacillaceae: 2±1% | normalized abundance of Porphyromonadaceae: 14±21% | normalized abundance of Prevotellaceae: 18±25% | normalized abundance of Ruminococcaceae: 17±22% | normalized abundance of Streptococcaceae: 4±10 | normalized abundance of Veillonellaceae: 15±13%
